# Assay results published in US11466013B2 (Betta Pharmaceuticals Co., LTD, priority 2018, dated 2022).
# Legend:
# ERK1 = ERK1 (Homo sapiens, UniProt P27361); experiment: Kinase assay (Caliper, FAM-labeled peptide), ERK1; format: biochemical
# In short: (§1)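 Kinase preincubated 10 min at room temperature with serially diluted compound before FAM-labeled peptide plus ATP added; reaction run at 28 °C, then stopped. Substrate conversion read by Caliper mobility shift, normalized to DMSO and low controls, curve-fitted for IC50.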
# ERK2 = ERK2 (Homo sapiens, UniProt P28482); experiment: Kinase assay (Caliper, FAM-labeled peptide), ERK2; format: biochemical
# In short: as §1
# COLO205 cells = experiment: Cell proliferation assay (COLO205), Cell-titer Glo; format: cell-based; conditions: Homo sapiens, COLO 205, 120 h incubation
# In short: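 Cells seeded 2000/well overnight, then exposed to compound at 30000 down to 4.6 nM final (0.5% DMSO) for 120 h at 37° C, 5% CO2. CellTiter-Glo luminescence converted to % inhibition against DMSO and cell-free controls; IC50 by curve fit.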
# HCT 116 cells = experiment: Cell proliferation assay (HCT 116), Cell-titer Glo; format: cell-based; conditions: Homo sapiens, 120 h incubation
# Procedure: The HCT 116 cells were paved in a 96-well plate at 1200 cells, 160 μL/well. After incubating overnight, the compound solutions of gradient concentration was prepared, and 40 μL of DMSO solution of the test compound of each concentration was added to the cells of each well. The final concentration of the compound was 30000, 10000, 3333.3, 1111.1, 370.4, 123.5, 41.2, 13.7, 4.6, 0 nM (the final concentration of DMSO was 0.5%). 5% CO2 was incubated for 120 h at 37° C. 50 μL of Cell-titer Glo working solution was added to each well, shaked and mixed, and incubated at room temperature for 10 minutes. The multi-functional microplate reader read the luminescence value, and converted the luminescence value reading into inhibition percentage. Inhibition percentage=(maximum value−reading)/(maximum value−minimum value)*100.
# The “maximum value” was the DMSO control, the “minimum value” indicated the cell-free control group.
# Graphpad Prism software was used to perform curve fitting and obtain IC50 value.
# Chain of ERK1 (P27361 whole entry): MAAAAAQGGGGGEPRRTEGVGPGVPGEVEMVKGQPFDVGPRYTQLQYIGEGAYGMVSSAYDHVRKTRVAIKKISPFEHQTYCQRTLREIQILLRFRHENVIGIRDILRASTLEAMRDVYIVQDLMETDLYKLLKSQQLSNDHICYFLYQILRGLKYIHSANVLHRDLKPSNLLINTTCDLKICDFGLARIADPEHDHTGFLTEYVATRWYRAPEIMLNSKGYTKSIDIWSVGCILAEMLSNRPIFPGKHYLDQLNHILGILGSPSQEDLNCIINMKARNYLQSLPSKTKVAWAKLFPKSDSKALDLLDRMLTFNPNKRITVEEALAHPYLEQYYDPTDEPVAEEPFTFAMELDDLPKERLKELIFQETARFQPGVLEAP
# Chain of ERK2 (P28482 whole entry): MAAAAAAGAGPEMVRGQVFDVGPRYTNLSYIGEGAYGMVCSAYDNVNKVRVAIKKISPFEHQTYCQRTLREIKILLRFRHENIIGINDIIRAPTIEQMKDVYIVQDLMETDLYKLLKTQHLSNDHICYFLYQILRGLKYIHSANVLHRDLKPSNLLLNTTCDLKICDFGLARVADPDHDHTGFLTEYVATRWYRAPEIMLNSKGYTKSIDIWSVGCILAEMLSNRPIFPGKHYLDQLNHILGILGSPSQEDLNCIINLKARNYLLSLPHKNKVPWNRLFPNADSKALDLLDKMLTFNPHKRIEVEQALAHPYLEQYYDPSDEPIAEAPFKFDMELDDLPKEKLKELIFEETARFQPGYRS
SMILES,IC50 (ERK1) [nM],IC50 (ERK2) [nM],IC50 (COLO205 cells) [nM],IC50 (HCT 116 cells) [nM]
"O=C1c2cc(-c3cc(NC4CCOCC4)ncc3Cl)cn2CCN1Cc1cc(F)ccc1CO [Example 126, 7-(5-chloro-2-((tetrahydro-2h-pyran-4-yl)amino)pyridine-4-yl)-2-(5-fluoro-2-(hydroxymethyl)benzyl)-3,4-dihydropyrrolo[1,2-a] pyrazine-1(2H)-one]",0.57,0.32,30.3,14.3
"Cn1nccc1Nc1cc(-c2cc3n(c2)CCN(Cc2cc(F)ccc2CO)C3=O)c(Cl)cn1 [Example 50, 7-(5-Chloro-2-((1-methyl-1H-pyrazol-5-yl)amino)pyridin-4-yl)-2-(5-fluoro-2-(hydroxymethyl)benzyl)-3,4-dihydropyrrolo[1,2-a]pyrazine-1(2H)-one]",0.72,0.89,11.3,6.5
"COC[C@H]1Cn2cc(-c3nc(Nc4ccnn4C)ncc3C)cc2C(=O)N1Cc1cc(F)ccc1CO [Example 35, (R)-2-(5-fluoro-2-(hydroxymethyl)benzyl)-3-(methoxymethyl)-7-(5-methyl-2-((1-methyl-1H-pyrazol-5-yl)amino)pyrimidin-4-yl)-3,4-dihydropyrrolo[1,2-a]pyrazine-1(2H)-one]",0.84,0.48,16.6,10.4

# Further compounds by falling IC50 (ERK2), results first:
IC50 (ERK1) [nM],IC50 (ERK2) [nM],IC50 (COLO205 cells) [nM],IC50 (HCT 116 cells) [nM],SMILES
0.9,1.2,3.3,6.2,"COC[C@H]1Cn2cc(-c3cc(Nc4ccnn4C)ncc3Cl)cc2C(=O)N1Cc1cc(F)ccc1CO [Example 45, (R)-7-(5-chloro-2-((1-methyl-1H-pyrazol-5-yl)amino)pyridin-4-yl)-2-(5-fluoro-2-(hydroxymethyl)benzyl)-3-(methoxymethyl)-3,4-dihydropyrrolo[1,2-a]pyrazine-1(2H)-one]"
0.68,0.83,7.6,6.3,"CC(C)Nc1cc(-c2cc3n(c2)CC(CO)(CO)CN(Cc2cc(F)ccc2CO)C3=O)c(Cl)cn1 [Example 29, 8-(5-chloro-2-(isopropylamino)pyridin-4-yl)-2-(5-fluoro-2-(hydroxymethyl)benzyl)-4,4-bis (hydroxymethyl)-2,3,4,5-tetrahydro-1h-pyrrolo[1,2-a][1,4] diazepine-1-one]"
,0.7,12.9,6.3,"Cn1nccc1Nc1cc(-c2cc3n(c2)CCN(Cc2cc(F)cc(F)c2CO)C3=O)c(Cl)cn1 [Example 148, 7-(5-chloro-2-((1-methyl-1h-pyrazole-5-yl)amino)pyridine-4-yl)-2-(3,5-difluoro-2-(hydroxymethyl)benzyl)-3,4-dihydropyrrolo[1,2-a] pyrazine-1(2H)-one]"
0.93,0.39,17.5,7.99,"COC[C@H]1Cn2cc(-c3cc(NC4CCOCC4)ncc3Cl)cc2C(=O)N1Cc1cc(F)ccc1CO [Example 62, (R)-7-(5-chloro-2-((tetrahydro-2h-pyran-4-yl)amino)pyridine-4-yl)-2-(5-fluoro-2-(hydroxymethyl)benzyl)-3-(methoxymethyl)-3,4-dihydropyrrolo[1,2-a] pyrazine-1(2H)-one]"
